Data as given in article PMC7313537 (PLoS ONE, 2020).

Assays:
TIE2 = TIE2 (Homo sapiens, UniProt Q02763); test: Enzyme selectivity panel; format: biochemical; details: 1 mM ATP
Protocol: (§1) The kinase assays were carried out at room temperature in HEPES 50 mM, pH 7.0, NaN3 0.02%, BSA 0.01%, Orthovanadate 0.1 mM, DTT 1 mM, MgCl2 10 mM in a final volume of 10 µL. Test compounds were transferred to the plate wells by ECHO liquid handler (Labcyte, San Jose, CA) with 0.5% dimethyl sulfoxide (DMSO) in the final assay. Peptide/kinase mixtures were diluted in the appropriate enzymatic buffer and 5µL of the mixture was added to a 384-well small volume black plate. Reactions were initiated by the addition of 5 µL ATP in reaction buffer, the final reaction mixture consisted of 500 nM peptide substrate, 1 mM ATP, and appropriate amount of specific kinase. […] The plates were then sealed and centrifuged at 1800 rpm for 2 minutes. […] Half maximal inhibitory concentration (IC50) determination was performed by fitting the curve of percent control activity versus the log of the compound concentration using the GraphPad Prism 6.0 software.

[1] = test system: FGFR3 phosphorylation in RT-4 cells; test: Proximity ligation assay; format: cell-based; details: 100 nM, 1 hour
From the text: S4 Figure. FGFR3 Phosphorylation Detected by Proximity Ligation Assay. […] Primary antibodies were rabbit anti-FGFR3 (Abcam, Cambridge, UK, #137084) at a 1:250 dilution and mouse 4G10 platinum anti-phosphotyrosine monoclonal cocktail IgG2b (Millipore, Burlington, MA, #05-1050) at a 1:250 dilution. Secondary probes were Duolink In Situ PLA® Probe Anti-Rabbit PLUS, affinity purified donkey anti-rabbit IgG (H+L) and Duolink In Situ PLA® Probe Anti-Mouse MINUS, Affinity purified donkey anti-mouse IgG (H+L). Detection was via Duolink In Situ Detection Reagents Red.

[2] = test system: KATO III (gastric cancer); test: Cell viability assay (CellTiter-Glo); format: cell-based; details: Homo sapiens, FGFR2 amplification, 72 hours, read-out: Mean GI50 ± S.D.
SGK2 = target: T1, SGK2 (Homo sapiens, UniProt Q9HBY8); test: Enzyme selectivity panel; format: biochemical; details: 1 mM ATP
T1 construct: purchased In-house HTRF panel (56 kinases) and PerkinElmer (161-kinase panel)
Protocol: as §1

BRAF = BRAF (Homo sapiens, UniProt P15056); test: Enzyme selectivity panel; format: biochemical; details: 1 mM ATP
Protocol: as §1

FLT3 = FLT3 (Homo sapiens, UniProt P36888); test: Enzyme selectivity panel; format: biochemical; details: 1 mM ATP
Protocol: as §1

RT-112 (bladder cancer) = test: Cell viability assay (CellTiter-Glo); format: cell-based; details: Homo sapiens, FGFR3-TACC3 fusion, 72 hours, read-out: Mean GI50 ± S.D.
CHEK2 = CHEK2 (Homo sapiens, UniProt O96017); test: Enzyme selectivity panel; format: biochemical; details: 1 mM ATP
Protocol: as §1

AURKA = AURKA (Homo sapiens, UniProt O14965); test: Enzyme selectivity panel; format: biochemical; details: 1 mM ATP
Protocol: as §1

CHEK1 = CHEK1 (Homo sapiens, UniProt O14757); test: Enzyme selectivity panel; format: biochemical; details: 1 mM ATP
Protocol: as §1

SRC = target: T2, SRC (Homo sapiens, UniProt P12931); test: Enzyme selectivity panel; format: biochemical; details: 1 mM ATP
T2 construct: purchased In-house HTRF panel (56 kinases) and PerkinElmer (161-kinase panel)
Protocol: as §1

CDK2 = CDK2 (Homo sapiens, UniProt P24941); test: Enzyme selectivity panel; format: biochemical; details: 1 mM ATP
Protocol: as §1

OPM-2 (myeloma) = test: Cell viability assay (CellTiter-Glo); format: cell-based; details: Homo sapiens, IgH-FGFR3 translocation, 72 hours, read-out: Mean GI50 ± S.D.
A549 = test: Cell viability assay (CellTiter-Glo); format: cell-based; details: Homo sapiens, Lung cancer, lacking FGFR alterations
SGK1 = target: T3, SGK1 (Homo sapiens, UniProt O00141); test: Enzyme selectivity panel; format: biochemical; details: 1 mM ATP
T3 construct: purchased In-house HTRF panel (56 kinases) and PerkinElmer (161-kinase panel)
Protocol: as §1

NLK = NLK (Homo sapiens, UniProt Q9UBE8); test: Enzyme selectivity panel; format: biochemical; details: 1 mM ATP
Protocol: as §1

PDGFR BETA = target: T4, PDGFR BETA (Homo sapiens, UniProt P09619); test: Enzyme selectivity panel; format: biochemical; details: 1 mM ATP
T4 construct: purchased In-house HTRF panel (56 kinases) and PerkinElmer (161-kinase panel)
Protocol: as §1

[3] = Plasma protein binding (equilibrium dialysis); format: in vitro ADME, cynomolgus monkey; details: pH 7.4, monkey plasma, read-out: PPB (% free)
Protocol: The final DMSO content in all cases was <0.1%. Each condition was incubated in duplicate. For protein binding determination, the Multi-Equilibrium Dialyzer System™ and diachema membranes from Harvard Apparatus (Holliston, MA) were utilized. Equilibrium dialysis was carried out in Teflon cells separated by a dialysis membrane with a molecular weight cutoff of 10,000 Daltons. […] The cells were rotated at a speed of 12 rpm in a 37°C water bath for 2 hours. Following the incubation period, buffer and serum/plasma samples were drained separately into empty preweighed glass test tubes. The tubes were reweighed, and the exact volume of sample recovered from each side of the dialysis cell was calculated using the mass. A 75-μL aliquot of each sample (buffer or serum/plasma) was added to a 96-well plate containing a protein precipitation solution of 100% methanol and 0.2 μM dextrorphan as the internal standard; 75 μL of blank buffer or plasma/serum was added to the plate to ensure identical composition across all samples. Prior to analysis, samples prepared in the 96-well plate were vigorously vortexed for approximately 5 minutes and centrifuged for 10 minutes at ~1700 × g to remove denatured proteins and particulate matter. The supernatant was transferred and analyzed using LC-MS/MS.

MM1.S = test: Cell viability assay (CellTiter-Glo); format: cell-based; details: Homo sapiens, Myeloma, lacking FGFR alterations
Pharmacokinetic analyses = format: in vivo, cynomolgus monkeys; details: male monkey
Protocol: The i.v. formulation in dogs and monkeys was 5% DMAC and 20% sulfobutyl ether β-cyclodextrin in saline. The oral formulation in all species was 5% DMAC in 0.5% methylcellulose aqueous solution. For rats, blood samples were collected at predose, 5 (i.v. dosing only), 15, and 30 minutes, and 1, 2, 4, 6, 8, and 24 hours. For dogs, blood samples were collected at predose, 2.5 and 5 (i.v. dosing only), 15, and 30 minutes, and 1, 2, 3, 4, 6, 8, 12, and 24 hours postdose. For monkeys, blood samples were collected at predose, 5 and 10 (i.v. dosing only), 15, and 30 minutes, and 1, 2, 3, 4, 6, 8, 12, 16, and 24 hours postdose. Collected blood samples were processed to extract plasma by centrifugation and stored at −20 °C until analysis.
The plasma was protein precipitated and the diluted supernatant was analyzed using LC/MS/MS. A standard curve was prepared in plasma from 1 to 5,000 nM and processed in the same manner as the samples. The pharmacokinetic parameters were determined using WinNonLin 6.3.

IGF1R = IGF1R (Homo sapiens, UniProt P08069); test: Enzyme selectivity panel; format: biochemical; details: 1 mM ATP
Protocol: as §1

KG1 = test: Cell viability assay (CellTiter-Glo); format: cell-based; details: Homo sapiens; KG1, parental line to KG1a
EPHA2 = EPHA2 (Homo sapiens, UniProt P29317); test: Enzyme selectivity panel; format: biochemical; details: 1 mM ATP
Protocol: as §1

T1 sequence (Q9HBY8 whole entry, species assumed): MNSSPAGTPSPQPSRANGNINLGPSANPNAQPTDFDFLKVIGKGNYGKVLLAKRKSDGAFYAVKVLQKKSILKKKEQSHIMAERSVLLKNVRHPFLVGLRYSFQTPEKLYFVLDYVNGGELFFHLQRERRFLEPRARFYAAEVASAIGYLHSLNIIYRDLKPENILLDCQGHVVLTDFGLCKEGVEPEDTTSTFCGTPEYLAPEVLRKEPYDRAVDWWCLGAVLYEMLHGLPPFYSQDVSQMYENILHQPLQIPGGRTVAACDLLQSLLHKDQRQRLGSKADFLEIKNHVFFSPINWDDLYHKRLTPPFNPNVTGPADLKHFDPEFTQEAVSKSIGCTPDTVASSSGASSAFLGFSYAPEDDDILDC
Chain of IGF1R (P08069 31-1367, species assumed): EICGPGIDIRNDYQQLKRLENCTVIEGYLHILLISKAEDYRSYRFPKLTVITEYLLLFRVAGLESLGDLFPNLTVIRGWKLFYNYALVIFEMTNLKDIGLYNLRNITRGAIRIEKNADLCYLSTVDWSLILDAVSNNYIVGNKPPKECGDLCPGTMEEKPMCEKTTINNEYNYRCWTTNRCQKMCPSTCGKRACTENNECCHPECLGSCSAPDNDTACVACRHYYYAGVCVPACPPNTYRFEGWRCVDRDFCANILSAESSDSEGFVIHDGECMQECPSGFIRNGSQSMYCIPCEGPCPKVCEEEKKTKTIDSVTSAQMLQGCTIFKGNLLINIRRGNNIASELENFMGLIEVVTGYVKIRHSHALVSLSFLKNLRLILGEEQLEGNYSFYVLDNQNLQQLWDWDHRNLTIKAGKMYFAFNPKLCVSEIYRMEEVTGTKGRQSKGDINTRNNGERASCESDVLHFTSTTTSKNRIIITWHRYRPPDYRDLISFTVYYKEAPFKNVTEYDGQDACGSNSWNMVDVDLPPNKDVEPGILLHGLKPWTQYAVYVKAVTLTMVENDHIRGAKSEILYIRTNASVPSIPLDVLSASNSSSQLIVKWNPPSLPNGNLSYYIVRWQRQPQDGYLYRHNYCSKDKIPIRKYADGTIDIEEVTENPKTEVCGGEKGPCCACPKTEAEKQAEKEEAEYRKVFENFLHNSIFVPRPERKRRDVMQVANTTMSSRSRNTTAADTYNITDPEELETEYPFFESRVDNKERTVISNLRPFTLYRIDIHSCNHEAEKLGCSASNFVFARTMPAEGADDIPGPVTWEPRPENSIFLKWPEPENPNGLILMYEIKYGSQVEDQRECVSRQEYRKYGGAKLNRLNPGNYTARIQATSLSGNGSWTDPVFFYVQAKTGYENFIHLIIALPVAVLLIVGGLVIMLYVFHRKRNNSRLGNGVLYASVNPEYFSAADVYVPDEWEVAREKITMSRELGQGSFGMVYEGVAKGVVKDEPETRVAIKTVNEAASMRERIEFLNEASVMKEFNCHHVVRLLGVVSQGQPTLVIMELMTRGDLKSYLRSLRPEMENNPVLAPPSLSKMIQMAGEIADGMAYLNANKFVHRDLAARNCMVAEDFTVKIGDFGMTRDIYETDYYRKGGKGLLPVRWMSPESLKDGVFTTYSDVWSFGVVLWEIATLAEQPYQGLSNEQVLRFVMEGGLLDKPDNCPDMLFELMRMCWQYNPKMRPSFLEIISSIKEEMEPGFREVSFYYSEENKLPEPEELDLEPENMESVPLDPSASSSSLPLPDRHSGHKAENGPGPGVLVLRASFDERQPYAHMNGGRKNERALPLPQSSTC
Chain of NLK (Q9UBE8 whole entry): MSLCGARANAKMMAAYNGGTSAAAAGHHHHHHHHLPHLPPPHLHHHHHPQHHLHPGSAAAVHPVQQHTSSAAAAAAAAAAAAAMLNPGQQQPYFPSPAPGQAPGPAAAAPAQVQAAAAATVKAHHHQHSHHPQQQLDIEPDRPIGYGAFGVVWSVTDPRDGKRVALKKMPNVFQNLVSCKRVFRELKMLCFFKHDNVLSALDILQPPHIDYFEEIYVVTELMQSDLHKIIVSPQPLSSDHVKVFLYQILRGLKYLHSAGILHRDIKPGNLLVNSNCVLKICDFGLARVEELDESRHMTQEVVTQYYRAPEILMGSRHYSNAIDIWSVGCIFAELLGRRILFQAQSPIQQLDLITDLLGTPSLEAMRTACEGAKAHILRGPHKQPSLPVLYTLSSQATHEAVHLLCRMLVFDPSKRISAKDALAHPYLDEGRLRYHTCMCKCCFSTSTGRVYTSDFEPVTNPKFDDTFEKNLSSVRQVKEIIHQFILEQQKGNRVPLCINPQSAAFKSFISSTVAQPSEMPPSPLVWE
Chain of FLT3 (P36888 27-993, species assumed): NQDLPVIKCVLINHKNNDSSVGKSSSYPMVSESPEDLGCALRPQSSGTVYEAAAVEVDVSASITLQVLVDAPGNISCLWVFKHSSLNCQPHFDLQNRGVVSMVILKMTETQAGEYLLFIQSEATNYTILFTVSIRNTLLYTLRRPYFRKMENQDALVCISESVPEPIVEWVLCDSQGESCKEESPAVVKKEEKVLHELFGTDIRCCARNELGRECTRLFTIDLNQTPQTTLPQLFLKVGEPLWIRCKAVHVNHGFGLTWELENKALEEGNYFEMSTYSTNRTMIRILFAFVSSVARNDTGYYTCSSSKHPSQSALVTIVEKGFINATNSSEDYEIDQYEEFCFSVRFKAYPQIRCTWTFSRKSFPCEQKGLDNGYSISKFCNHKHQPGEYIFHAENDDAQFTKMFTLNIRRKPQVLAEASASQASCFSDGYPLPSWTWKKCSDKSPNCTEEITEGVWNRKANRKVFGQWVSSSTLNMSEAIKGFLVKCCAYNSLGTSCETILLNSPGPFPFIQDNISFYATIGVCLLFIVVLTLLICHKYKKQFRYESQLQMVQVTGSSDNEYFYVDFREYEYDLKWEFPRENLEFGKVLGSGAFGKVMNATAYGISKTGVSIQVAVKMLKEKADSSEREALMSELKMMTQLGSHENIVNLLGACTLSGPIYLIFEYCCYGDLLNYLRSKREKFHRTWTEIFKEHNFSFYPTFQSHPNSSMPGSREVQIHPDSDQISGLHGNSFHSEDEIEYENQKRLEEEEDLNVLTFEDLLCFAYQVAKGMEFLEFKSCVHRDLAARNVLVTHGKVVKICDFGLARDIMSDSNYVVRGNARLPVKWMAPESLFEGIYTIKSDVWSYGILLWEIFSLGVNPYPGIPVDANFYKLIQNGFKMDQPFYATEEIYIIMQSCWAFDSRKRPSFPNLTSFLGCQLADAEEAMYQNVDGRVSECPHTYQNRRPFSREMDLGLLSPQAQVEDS
Chain of CHEK2 (O96017 whole entry, species assumed): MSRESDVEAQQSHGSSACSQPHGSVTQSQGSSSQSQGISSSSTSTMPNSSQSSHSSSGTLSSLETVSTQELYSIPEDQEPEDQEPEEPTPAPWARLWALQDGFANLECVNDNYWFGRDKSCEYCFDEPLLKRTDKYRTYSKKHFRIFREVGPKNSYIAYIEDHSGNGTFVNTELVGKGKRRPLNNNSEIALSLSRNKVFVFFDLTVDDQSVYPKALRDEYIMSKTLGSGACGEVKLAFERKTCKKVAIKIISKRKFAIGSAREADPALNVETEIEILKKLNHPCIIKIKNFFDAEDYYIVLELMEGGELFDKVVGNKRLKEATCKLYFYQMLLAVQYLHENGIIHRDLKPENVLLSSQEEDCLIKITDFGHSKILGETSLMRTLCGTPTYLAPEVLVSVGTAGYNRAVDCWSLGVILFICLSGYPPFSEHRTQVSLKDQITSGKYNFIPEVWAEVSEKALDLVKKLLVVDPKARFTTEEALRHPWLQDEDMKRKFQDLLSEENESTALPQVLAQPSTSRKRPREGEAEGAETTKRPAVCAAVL
Chain of TIE2 (Q02763 23-1124, species assumed): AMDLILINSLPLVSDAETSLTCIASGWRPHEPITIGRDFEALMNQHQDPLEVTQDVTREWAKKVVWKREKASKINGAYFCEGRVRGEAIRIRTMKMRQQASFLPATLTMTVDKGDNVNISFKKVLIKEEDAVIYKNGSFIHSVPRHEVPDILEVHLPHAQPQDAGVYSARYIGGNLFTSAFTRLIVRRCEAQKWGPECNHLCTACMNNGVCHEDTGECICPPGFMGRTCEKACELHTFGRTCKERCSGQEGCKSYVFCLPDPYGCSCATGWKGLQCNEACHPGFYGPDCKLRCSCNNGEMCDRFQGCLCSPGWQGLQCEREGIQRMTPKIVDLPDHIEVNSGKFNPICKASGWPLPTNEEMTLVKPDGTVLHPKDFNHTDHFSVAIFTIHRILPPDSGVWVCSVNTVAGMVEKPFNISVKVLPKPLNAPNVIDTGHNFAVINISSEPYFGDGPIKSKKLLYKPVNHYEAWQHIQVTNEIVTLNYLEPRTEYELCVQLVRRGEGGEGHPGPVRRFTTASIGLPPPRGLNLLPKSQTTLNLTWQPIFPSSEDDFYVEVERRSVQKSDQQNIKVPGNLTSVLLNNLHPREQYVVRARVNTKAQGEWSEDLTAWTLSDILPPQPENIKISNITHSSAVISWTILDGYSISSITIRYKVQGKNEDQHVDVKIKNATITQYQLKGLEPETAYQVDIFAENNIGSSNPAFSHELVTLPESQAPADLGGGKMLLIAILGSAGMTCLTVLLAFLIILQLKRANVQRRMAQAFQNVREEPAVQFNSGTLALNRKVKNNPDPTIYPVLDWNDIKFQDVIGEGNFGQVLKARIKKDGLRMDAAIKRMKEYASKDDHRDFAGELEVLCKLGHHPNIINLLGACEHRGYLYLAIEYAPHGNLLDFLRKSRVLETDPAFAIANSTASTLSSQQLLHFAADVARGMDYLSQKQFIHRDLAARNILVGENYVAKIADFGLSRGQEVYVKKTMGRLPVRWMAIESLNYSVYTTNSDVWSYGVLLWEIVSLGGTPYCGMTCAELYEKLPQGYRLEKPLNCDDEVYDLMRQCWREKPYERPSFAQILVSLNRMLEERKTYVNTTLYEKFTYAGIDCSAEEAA

## CCN1C(=O)N(c2c(F)c(OC)cc(OC)c2F)Cc2cnc3[nH]c(CN4CCOCC4)cc3c21 [INCB054828, pemigatinib]
TIE2
  IC50: > 10 µM
[1]
  FGFR3 phosphorylation: a decrease was detected
[2]
  GI50: 0.003 ± 0.001 µM
SGK2
  IC50: > 10 µM
BRAF
  IC50: > 10 µM
FLT3
  IC50: > 10 µM
RT-112 (bladder cancer)
  GI50: 0.007 ± 0.003 µM
CHEK2
  IC50: > 10 µM
AURKA
  IC50: > 10 µM
CHEK1
  IC50: > 10 µM
SRC
  IC50: > 10 µM
CDK2
  IC50: > 10 µM
OPM-2 (myeloma)
  GI50: 0.018 ± 0.009 µM
A549
  GI50: > 5 µM
SGK1
  IC50: > 10 µM
NLK
  IC50: > 10 µM
PDGFR BETA
  IC50: 1.79 µM
[3]
  fraction unbound at 2 h, 1 μM: 0.082
MM1.S
  GI50: > 5 µM
Pharmacokinetic analyses; cynomolgus monkey, plasma, intravenous 1 mg/kg
  clearance: 3.3 mL/min/kg
Pharmacokinetic analyses; cynomolgus monkey, plasma, intravenous 1 mg/kg, read-out: Vss
  Vd: 0.584 L/kg
Pharmacokinetic analyses; cynomolgus monkey, plasma, intravenous 1 mg/kg, read-out: t½ (converted)
  half-life: 10.3 h
Pharmacokinetic analyses; cynomolgus monkey, plasma, oral 2 mg/kg
  bioavailability: 29%
Pharmacokinetic analyses; intravenous 1 mg/kg, % of hepatic blood flow
  Hepatic ER: 8%
Pharmacokinetic analyses; oral 2 mg/kg
  AUC: 6.19 µM·h
IGF1R
  IC50: > 10 µM
KG1
  GI50: 0.001 µM
EPHA2
  IC50: > 10 µM
